Experimental data as given in patent publication US7531320B2, “Modulation of β-catenin/TCF-activated transcription” (priority 2003, dated 2009).

What was measured:
p300/β-catenin complex [1] = molecular target: T1, p300/β-catenin complex (Homo sapiens, UniProt Q09472); experiment: Co-immunoprecipitation of β-catenin with p300 in SW480 cells; format: cell-based; conditions: p300 (1-111), (1-211), (1-351), 50 μM COMPOUND 1
T1 construct: endogenous in cells; host or cells: SW480
Experimental: (§1) FIG. 3. COMPOUND 1 disrupts the β-catenin/CBP complex but not the p300/β-catenin complex. • A. Full-length Xenopus laevis β-catenin (1.1, 2.2, and 3.3 μg) or murine CBP (0.14, 0.28, 0.55, 1.1, and 2.2 μg) plasmids were cotransfected in SW480 cells along with the β-catenin/TCF (1.1 μg) reporter gene construct. Empty pcDNA3 vector was used to equalize the amount of DNA used in each reaction. Dual luciferase assays were performed 24 hours post COMPOUND 1 treatment. All experiments were performed in duplicate and values plotted as means +/−standard deviation. • B. COMPOUND 1 competes with β-catenin for CBP. SW480 cells were treated with 5 or 10 μM of COMPOUND 1 or control (0.5% DMSO). 24 hours post treatment, lysates were incubated with beads coated with either control the antibody, or anti-CBP, or anti-p300 antibodies. Co-immunoprecipitated proteins were subjected to gel electrophoresis and immunoblotting using anti-β-catenin antibodies. The arrows point to the immunoprecipitated β-catenin (doublets). • C. CBP (1-111) is the minimal region of interaction with β-catenin. SW480 cells transfected with a CBP deletion series were subjected to immunoprecipitation using anti-β-catenin antibodies coated on Protein A-agarose beads. The immune complexes were washed and subjected to gel electrophoresis followed by immunoblotting using anti-His antibodies. […]
T1 sequence (Q09472 1-111, one chain of several): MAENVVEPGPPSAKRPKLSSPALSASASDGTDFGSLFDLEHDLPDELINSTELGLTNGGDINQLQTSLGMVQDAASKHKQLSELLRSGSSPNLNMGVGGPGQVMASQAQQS

p300/β-catenin complex [2] = molecular target: T2, p300/β-catenin complex (Homo sapiens, UniProt Q09472); experiment: as above; format: cell-based; conditions: SW480 cells, 5 or 10 μM, 24 hours
T2 construct: endogenous in cells; host or cells: SW480
Experimental: as §1
T2 sequence (Q09472 2-2414, one chain of several): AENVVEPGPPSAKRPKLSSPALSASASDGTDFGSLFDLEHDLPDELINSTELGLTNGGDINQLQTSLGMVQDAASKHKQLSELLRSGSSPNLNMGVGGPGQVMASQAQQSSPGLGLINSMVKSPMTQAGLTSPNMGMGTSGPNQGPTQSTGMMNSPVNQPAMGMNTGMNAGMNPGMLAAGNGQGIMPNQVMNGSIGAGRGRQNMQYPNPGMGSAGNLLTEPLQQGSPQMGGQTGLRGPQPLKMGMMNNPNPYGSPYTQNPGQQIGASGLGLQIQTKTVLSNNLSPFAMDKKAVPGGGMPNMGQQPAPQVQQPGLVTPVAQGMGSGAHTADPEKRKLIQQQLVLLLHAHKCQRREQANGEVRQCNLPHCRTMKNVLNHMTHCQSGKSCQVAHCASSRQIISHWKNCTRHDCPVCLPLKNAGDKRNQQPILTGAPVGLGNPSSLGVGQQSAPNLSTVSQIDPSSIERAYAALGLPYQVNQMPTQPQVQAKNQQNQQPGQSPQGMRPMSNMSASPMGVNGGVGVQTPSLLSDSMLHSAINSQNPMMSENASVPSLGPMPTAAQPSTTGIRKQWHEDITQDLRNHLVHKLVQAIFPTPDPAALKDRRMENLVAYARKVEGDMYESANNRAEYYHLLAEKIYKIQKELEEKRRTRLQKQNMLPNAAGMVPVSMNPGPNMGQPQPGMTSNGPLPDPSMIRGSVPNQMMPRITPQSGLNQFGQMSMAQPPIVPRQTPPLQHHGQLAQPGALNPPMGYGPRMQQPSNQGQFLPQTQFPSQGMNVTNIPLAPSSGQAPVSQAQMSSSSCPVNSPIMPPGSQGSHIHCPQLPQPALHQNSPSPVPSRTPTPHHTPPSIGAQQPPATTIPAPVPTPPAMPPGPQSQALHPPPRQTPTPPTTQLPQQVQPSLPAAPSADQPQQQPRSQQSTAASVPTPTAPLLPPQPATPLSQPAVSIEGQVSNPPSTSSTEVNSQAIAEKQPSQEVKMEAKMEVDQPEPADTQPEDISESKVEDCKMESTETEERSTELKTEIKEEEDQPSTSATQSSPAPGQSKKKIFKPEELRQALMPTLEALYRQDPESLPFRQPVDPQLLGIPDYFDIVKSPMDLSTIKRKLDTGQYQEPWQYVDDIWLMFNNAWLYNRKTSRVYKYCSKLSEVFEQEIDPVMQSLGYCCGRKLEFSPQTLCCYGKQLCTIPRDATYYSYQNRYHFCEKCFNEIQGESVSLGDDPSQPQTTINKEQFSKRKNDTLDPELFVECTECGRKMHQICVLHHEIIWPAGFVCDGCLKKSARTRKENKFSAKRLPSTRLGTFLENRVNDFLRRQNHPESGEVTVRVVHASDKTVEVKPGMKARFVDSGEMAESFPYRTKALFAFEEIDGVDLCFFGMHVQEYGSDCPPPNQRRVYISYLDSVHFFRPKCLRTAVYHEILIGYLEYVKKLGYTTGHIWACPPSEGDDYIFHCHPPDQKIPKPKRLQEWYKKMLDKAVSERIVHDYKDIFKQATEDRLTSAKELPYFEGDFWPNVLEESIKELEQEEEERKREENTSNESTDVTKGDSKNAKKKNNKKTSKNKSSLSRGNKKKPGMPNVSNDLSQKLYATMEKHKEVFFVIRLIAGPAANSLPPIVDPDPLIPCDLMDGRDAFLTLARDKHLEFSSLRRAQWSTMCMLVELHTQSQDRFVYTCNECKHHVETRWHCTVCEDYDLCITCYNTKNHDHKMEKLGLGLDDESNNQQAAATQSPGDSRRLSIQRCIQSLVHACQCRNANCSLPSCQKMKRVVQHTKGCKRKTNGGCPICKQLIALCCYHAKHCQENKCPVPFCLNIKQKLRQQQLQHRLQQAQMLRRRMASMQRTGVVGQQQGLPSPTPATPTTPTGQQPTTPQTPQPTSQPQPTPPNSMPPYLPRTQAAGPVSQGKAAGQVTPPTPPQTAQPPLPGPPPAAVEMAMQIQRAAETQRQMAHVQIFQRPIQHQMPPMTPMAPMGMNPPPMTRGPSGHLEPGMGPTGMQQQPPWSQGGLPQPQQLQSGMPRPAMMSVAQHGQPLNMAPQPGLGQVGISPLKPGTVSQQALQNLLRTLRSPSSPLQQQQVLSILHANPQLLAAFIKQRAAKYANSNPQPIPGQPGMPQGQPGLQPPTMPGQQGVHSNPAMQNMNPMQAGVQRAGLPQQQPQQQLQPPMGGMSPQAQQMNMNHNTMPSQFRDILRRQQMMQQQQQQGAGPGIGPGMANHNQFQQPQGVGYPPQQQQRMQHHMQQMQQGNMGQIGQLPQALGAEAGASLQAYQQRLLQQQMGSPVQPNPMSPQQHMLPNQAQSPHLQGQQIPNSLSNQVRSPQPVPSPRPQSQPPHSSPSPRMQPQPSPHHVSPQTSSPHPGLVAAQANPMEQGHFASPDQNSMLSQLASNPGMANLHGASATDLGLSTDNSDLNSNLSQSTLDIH

SMILES: O=C1C(Cc2ccc(O)cc2)N2C(=O)CCN(C(=O)NCc3ccccc3)C2CN1Cc1cccc2ccccc12 (centres unmarked) [COMPOUND 1]
- p300 fragments binding to immunoprecipitated β-catenin in presence of excess COMPOUND 1 (p300/β-catenin complex [1]): had no effect
- Binding of β-catenin to p300 (immunoprecipitation) (p300/β-catenin complex [2]): did not interfere
